Data reported in patent US20240216336A1, “CLOTRIMAZOLE AS A TREATMENT FOR IMMUNODEFICIENCY DISORDERS” (Northwestern University, priority 2020, published 2024).

What was measured:
[1] = system: BMDMs; assay: Inflammatory cytokine mRNA expression (quantitative RT-PCR) in BMDMs; assay type: cell-based, mouse; conditions: for increase in IL-1β mRNA levels in BMDMs of ΔE1HK1 mice / increase in IL-6 mRNA levels in BMDMs of ΔE1HK1 mice: 4 hr 6AN (1 mM) or OT (50 μM), ±LPS (200 ng/ml); for increase in IL-1β mRNA levels in IFN-γ primed BMDMs of ΔE1HK1 mice / increase in IL-6 mRNA levels in IFN-γ primed BMDMs of ΔE1HK1 mice: 16 hrs IFNγ priming, then 4 hrs LPS (200 ng/ml) ± 6AN (1 mM) or OT (50 μM)
Procedure: (§1) BMDMs were isolated from ΔE1HK1 and WT mice as previously reported (Rodriguez et al., 2019). Briefly, bone marrow was isolated from the tibia and femur of 8-10-week-old mice by puncturing one end of the femur and tibia with a 27g needle and placing it in a 0.5 ml tube with a hole punched in the bottom. The 0.5 ml tube containing the bone was then placed in a 1.75 ml tube and centrifuged at 5,000×g for 3.5 minutes. Bone marrow was then collected into the 1.75 ml tube and resuspend in 1 ml of RBC lysis buffer (abcam) for 1 minute and then transferred to a 50 ml tube with 4 ml RBC lysis buffer and incubated for 4 minutes. Next, 35 ml of PBS was added and centrifuged at 300×g for 5 min and supernatant was then decanted and cell pellet was re-suspended in complete RPMI with 20 ng/ml mCSF (Preprotech). Cells were counted using a hemocytometer and plated in 10 cm tissue culture plates at a density of 3-million cells/plate. Cells were cultured with 20 ng/mL mCSF to induce differentiation into BMDMs. Media was changed every 2 days and BMDMs were harvested by scraping on day 6 and plated in 12 well plates at a density of 1-million cells/well for mRNA extraction experiments. BMDMs were stimulated in the same manner as peritoneal macrophages (LPS dose for BMDMs was 200 ng/ml).
(§2) RNA was isolated from cells or tissues using RNA-STAT60 (Teltest) followed by chloroform extraction and precipitation. Reverse transcription was carried out using qScript cDNA Synthesis Kit (Quanta Bio). The resulting cDNA was amplified quantitatively using PerfeCTa SYBR Green Mix (Quanta Bio) on a 7500 Fast Real-time PCR System (Applied Biosystems). The relative gene expression was determined using differences in Ct values between gene of interest and house-keeping control genes. Complete list of primers can be found in Key Reagents Table (Table 1).

[2] = system: RAW264.7 cells; assay: Inflammatory cytokine mRNA expression (quantitative RT-PCR) in RAW264.7 cells; assay type: cell-based, mouse
Procedure: (§3) RAW264.7 cells were a gift from Jason A. Wertheim MD, PhD. HepG2 and HEK293T cells were obtained from ATCC. RAW264.7, HEK293T, and HepG2 cells were cultured in Dulbecco's Modified Eagle's Medium (DMEM) (Corning) supplemented with 10% FBS (Atlanta Biologicals), 2 mM glutamine (HyClone), and 1 mM sodium pyruvate (Corning). […]
as §2

[3] = target: T1, GAPDH (Mus musculus, UniProt P16858); assay: GAPDH activity normalized to total protein in BMDMs; assay type: cell-based; set-up: endogenous in cells; conditions: ±CGP3466 for 4 hrs
T1 sequence (P16858 whole entry): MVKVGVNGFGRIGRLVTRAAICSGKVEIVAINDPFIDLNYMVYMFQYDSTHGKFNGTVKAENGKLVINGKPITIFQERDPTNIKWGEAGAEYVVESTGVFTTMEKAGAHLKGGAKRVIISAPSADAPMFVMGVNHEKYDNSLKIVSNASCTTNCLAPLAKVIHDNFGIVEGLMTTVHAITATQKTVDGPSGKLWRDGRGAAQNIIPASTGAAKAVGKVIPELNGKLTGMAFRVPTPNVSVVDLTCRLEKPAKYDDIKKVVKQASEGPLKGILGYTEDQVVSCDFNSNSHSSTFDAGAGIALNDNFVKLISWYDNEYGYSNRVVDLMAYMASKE
Procedure: as §1, with “Media was changed every 2 days and BMDMs were harvested by scraping on day 6 and plated in 12 well plates at a density of 1-million cells/well for mRNA extraction experiments. BMDMs were stimulated in the same manner as peritoneal macrophages (LPS dose for BMDMs was 200 ng/ml).” left out
(§4) The following kits were used according to the manufacturer's instructions: Promega NADP/NADPH quantification kit (G9081) and […] (G9071); Glyceraldehyde-3-Phosphate Dehydrogenase Activity Assay kit (abcam); ELISAs for IL-1β (DY401), IL-6 […].

[4] = target: T1, GAPDH; assay: GAPDH activity normalized to total protein in RAW264.7 cells; assay type: cell-based; set-up: endogenous in cells; host or cells: RAW264.7
Procedure: as §3, §4

[5] = system: BMDMs from ΔE1HK1 mice; assay: IL-1β ELISA from BMDM media; assay type: cell-based, mouse; conditions: 4 hrs LPS (200 ng/ml) ± 6AN (1 mM) or OT (50 μM), then 30 min ATP (2.5 mM)
Procedure: as §1, with “Cells were cultured with 20 ng/mL mCSF to induce differentiation into BMDMs. Media was changed every 2 days and BMDMs were harvested by scraping on day 6 and plated in 12 well plates at a density of 1-million cells/well for mRNA extraction experiments. BMDMs were stimulated in the same manner as peritoneal macrophages (LPS dose for BMDMs was 200 ng/ml).” left out
[…] Cell supernatant was collected and analyzed by ELISA according to manufacturer's instructions for IL-1β (DY401), IL-6 (DY406), and TNFα (DY410).
as §4

[6] = target: T2, HK1 (Mus musculus, UniProt P17710); assay: Immunofluorescence of HK1 and mitochondria (MT-Red) with colocalization analysis; assay type: cell-based; conditions: WT BMDMs; CLT (20 μM)
T2 construct: IF of HK1 and mitochondria (MT-Red) imaging in RAW264.7 cells±clotrimazole (CLT) (20 μM); endogenous in cells; the running text says WT BMDMs
T2 sequence (P17710 1-918 isoform P17710-3): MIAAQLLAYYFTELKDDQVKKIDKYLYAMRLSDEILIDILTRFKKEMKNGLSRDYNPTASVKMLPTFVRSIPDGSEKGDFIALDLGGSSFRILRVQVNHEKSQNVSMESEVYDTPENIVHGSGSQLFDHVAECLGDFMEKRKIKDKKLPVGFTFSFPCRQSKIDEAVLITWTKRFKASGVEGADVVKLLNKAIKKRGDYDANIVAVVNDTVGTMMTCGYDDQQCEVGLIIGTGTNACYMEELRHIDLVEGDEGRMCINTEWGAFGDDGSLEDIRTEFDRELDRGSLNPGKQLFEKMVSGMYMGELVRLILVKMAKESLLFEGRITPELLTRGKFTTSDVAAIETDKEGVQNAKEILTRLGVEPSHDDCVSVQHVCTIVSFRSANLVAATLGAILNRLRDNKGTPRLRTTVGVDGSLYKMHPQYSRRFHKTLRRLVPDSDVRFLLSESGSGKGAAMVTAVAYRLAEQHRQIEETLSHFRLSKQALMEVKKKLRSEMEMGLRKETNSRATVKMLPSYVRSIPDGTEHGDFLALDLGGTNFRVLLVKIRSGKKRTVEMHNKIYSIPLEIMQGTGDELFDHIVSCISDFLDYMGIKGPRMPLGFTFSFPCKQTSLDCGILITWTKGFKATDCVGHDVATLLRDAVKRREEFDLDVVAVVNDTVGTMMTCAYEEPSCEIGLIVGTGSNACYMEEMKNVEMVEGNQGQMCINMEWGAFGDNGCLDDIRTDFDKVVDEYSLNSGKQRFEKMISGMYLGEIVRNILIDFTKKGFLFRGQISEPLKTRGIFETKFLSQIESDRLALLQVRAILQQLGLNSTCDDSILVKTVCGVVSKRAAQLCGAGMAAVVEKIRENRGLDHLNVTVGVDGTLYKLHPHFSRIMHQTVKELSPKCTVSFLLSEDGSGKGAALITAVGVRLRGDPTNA
Procedure: Glass-bottom confocal dishes (35 mm; VWR) were coated with 60 nM fibronectin (Sigma-Aldrich), diluted in 0.1% gelatin overnight. Before plating cells, coated confocal dishes were washed twice with PBS. BMDMs (100,000 cells/well), PMs (100,000 cells/well), HepG2 (50,000 cells/well), or RAW264.7 (50,000 cells/well) cells were plated in their respective growth media (complete DMEM or RPMI) and allowed to settle overnight before immunofluorescence (IF) staining. For fixed cell immunofluorescence (IF), cells were plated in 6-well plates (Corning) containing 15 mm glass coverslips (Fisher-Scientific) coated in gelatin and fibronectin. Prior to fixation, growth media was removed and cells were washed 2× with PBS. Cells were fixed with 1 ml of ice-cold 4% formaldehyde for 10 min at room temperature (4% formaldehyde prepared from 16% stock and diluted in PBS). After fixing the cells, plates were washed with PBS 2× and permeabilized with 0.3% triton-X-100 in PBS for 10 min at room temperature. Then, cells were blocked with 10% FBS/PBS for 1 hour at room temperature and subsequently treated with primary antibody diluted in 10% FBS/PBS solution over-night. The next day, secondary antibody was diluted in 10% FBS/PBS at 1:1000 and incubated for 2 hrs at room temperature. […] Images were quantified using ImageJ.

[7] = RAW264.7 cells, koningic acid, LPS
[8] = CLT (20 μM) treated cells vs vehicle treated controls

C#CCN(C)CC1=Cc2ccccc2Oc2ccccc21.O=C(O)/C=C\C(=O)O [CGP3466, CGP 3466 maleate (CAS 200189-97-5)] was tested, and the “IL-1β mRNA expression in WT BMDMs” value ([1]; ±LPS and ±CGP3466 for 4 hrs, compared with ΔE1HK1 BMDMs) was “increased IL-1β mRNA expression in WT BMDMs to the level of the hyper-inflamed ΔE1HK1 BMDMs”, the “increase in IL-1β mRNA with LPS in RAW264.7 cells” value ([2]; ±LPS (200 ng/ml) and ±CGP3466 for 4 hrs) was “amplified” and the “difference in GAPDH activity of BMDMs between WT and ΔE1HK1 mice” value [3] was “abolished”. For the same compound, the “GAPDH activity in RAW264.7 cells” value ([4]; LPS (200 ng/ml) ±CGP3466) was “decreased”.

NC(=O)c1ccc(N)nc1 [6AN, 6-aminonicotinamide] was tested, and the “IL-1β protein release (ELISA), higher release in ΔE1HK1 BMDMs” value [5] was “reversed”, the “increase in IL-1β mRNA levels in BMDMs of ΔE1HK1 mice” value [1] was “abolished” and the “increase in IL-6 mRNA levels in BMDMs of ΔE1HK1 mice” value [1] was “abolished”. For the same compound, the “increase in IL-1β mRNA levels in IFN-γ primed BMDMs of ΔE1HK1 mice” value [1] was “rescued” and the “increase in IL-6 mRNA levels in IFN-γ primed BMDMs of ΔE1HK1 mice” value [1] was “rescued”.

In the case of Cc1ncc(C[n+]2csc(CCO)c2C)c(=O)[nH]1 [OT, oxythiamine], the “IL-1β protein release (ELISA), higher release in ΔE1HK1 BMDMs” value [5] is reported as “reversed”, the “increase in IL-1β mRNA levels in BMDMs of ΔE1HK1 mice” value [1] is reported as “abolished” and the “increase in IL-6 mRNA levels in BMDMs of ΔE1HK1 mice” value [1] is reported as “abolished”. The “increase in IL-1β mRNA levels in IFN-γ primed BMDMs of ΔE1HK1 mice” value [1] was “rescued” and the “increase in IL-6 mRNA levels in IFN-γ primed BMDMs of ΔE1HK1 mice” value [1] was “rescued”.

In the case of CC(C)[C@H]1CC[C@@]2(CO2)[C@H]2C(=O)OCC(C(=O)O)=C[C@H]12 [koningic acid], the “IL-1β mRNA expression after LPS treatment” value [2, 7] is reported as “increased”, the “IL-6 mRNA expression after LPS treatment” value [2, 7] is reported as “increased” and the “TNFα mRNA expression after LPS treatment” value [2, 7] is reported as “increased”.

Clc1ccccc1C(c1ccccc1)(c1ccccc1)n1ccnc1 [CLT, Clotrimazole] was tested, and the “IL-1β mRNA after LPS stimulation” value [2, 8] was “significant increase”, the “IL-6 mRNA after LPS stimulation” value [2, 8] was “significant increase” and the “TNFα mRNA after LPS stimulation” value [2, 8] was “significant increase”. For the same compound, the “cytokine mRNA levels at baseline” value ([2]; CLT (20 μM), no LPS) was “minimal change”, the “production of inflammatory cytokines including IL-1β, TNFα, and IL-6” value ([2]; macrophages in vitro (summary statement)) was “elevated production” and the “HK1 dislocation from the mitochondria” value [6] was “significant increase”. For the same compound, the “GAPDH activity in RAW264.7 cells after LPS treatment” value ([4]; ±CLT (20 μM)) was “significant decrease”.
